T1: GIT1 1–370 (mouse) (mouse, UniProt Q68FF6 1-370)
T1 construct: GIT1, mouse, aa 1-370 (GenBank NM_001004144.1), cloned into pET32M3C; also called GIT1 protein; source: E. coli BL21 (DE3), purified (Ni-NTA, SEC, tag cleaved by HRV-3C, SEC); not shown: Trx, N-terminal, cleaved; His6, N-terminal, cleaved
T1 sequence (looked up): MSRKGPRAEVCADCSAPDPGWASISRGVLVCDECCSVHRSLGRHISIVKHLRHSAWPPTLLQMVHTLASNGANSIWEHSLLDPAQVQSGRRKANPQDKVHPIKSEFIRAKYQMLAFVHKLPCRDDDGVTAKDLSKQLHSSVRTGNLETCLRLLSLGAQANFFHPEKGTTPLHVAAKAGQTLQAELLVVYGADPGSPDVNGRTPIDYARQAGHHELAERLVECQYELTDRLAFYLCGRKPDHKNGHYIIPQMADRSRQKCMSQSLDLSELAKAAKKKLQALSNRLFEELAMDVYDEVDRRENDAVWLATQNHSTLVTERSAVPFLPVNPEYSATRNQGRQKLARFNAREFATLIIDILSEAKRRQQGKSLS

T2: GIT1 1–370 (Mus musculus, UniProt Q68FF6)
T2 construct: residues 1-370, E. coli BL21(DE3), N-terminal Trx-His6 tag removed by HRV-3C protease; for BLI biotin-labelled (BLI construct not restated)
T2 sequence (Q68FF6 1-370): T1 sequence (looked up)

B1: FITC-β-Pix fluorescent peptide (peptide)
peptide: ALEEDAQILKVIEAYCTSAKT
modifications: not fully specified (N-terminus)
notes: source: synthetic peptide (China peptide, Shanghai)

Ends that are not written are not given here.

The first experiment has as its target T1, GIT1 1–370 (mouse). In words: fluorescence polarisation; direct titration: 100 nM fluorescent peptide with serial dilutions of GIT1 (0.01 to 10 µM), 80 µL; 100 mM NaCl, 50 mM Tris pH 7.5, room temperature. The conditions noted are these: both partners purified.
As for B1, the binding result was “binds”.

Another experiment addresses T2, GIT1 1–370. In words: biochemical. Also on record: Fluorescence polarization competition of FITC-beta-Pix peptide binding to GIT1 1-370. Conditions: read-out: IC50 in FP assay. How it is done: GIT1 protein purification: Purification of GIT1 1–370 was performed following a published protocol. Briefly, the coding sequence of mouse GIT1 aa. 1–370 (GenBank: NM_001004144.1) was cloned into a pET32M3C (with an N-terminal Trx-His6 tag) vector. The recombinant protein was expressed in Escherichia coli BL21 (DE3) cells at 16 °C for 18 h induced by the isopropyl-β-D-thiogalactoside (IPTG) at a final concentration of 0.2 mM. The N-terminal Trx-His6-tagged GIT1 1–370 was purified by Ni^2+-NTA agarose affinity chromatography, followed by a Superdex-200 26/60 size-exclusion chromatography (GE Healthcare, Cytiva). To remove the Trx-His6 tag, GIT1 protein was cleaved by HRV-3C protease at 4 °C overnight and then purified by another step of SEC purification. The β-Pix-positive peptide (sequence: […]) and fluorescent peptide (sequence: FITC-(Acp)-[…]) were synthesized by China peptide (Shanghai, China). FP assay was used to monitor interactions between GIT1 and the compounds. For each assay, fresh protein stocks of GIT1 were thawed. Assay buffer contained 100 mM NaCl, 50 mM Tris pH 7.5. All the experiments were prepared in duplicates. The fluorescence intensities, parallel and perpendicular to the plane of excitation, were determined in Corning black 96-well NBS assay plates at room temperature. Fluorescence polarization was determined using a Multi-Mode Detection Platform (SpectraMax Paradigm, Molecular Devices, USA) with 485 nm excitation and 535 nm emission filters, the values were expressed in millipolarization units (mP). The binding affinity of the fluorescent peptide toward GIT1 was first determined via titration. For this purpose, 100 nM fluorescent peptide was contacted with serial dilutions of GIT1 (concentration ranging from 0.01 to 10 µM) in a final volume of 80 µL. KD value was stimulated from FP values and protein concentrations using GraphPad Prism 8.0 software. Competition binding assay was performed using 100 nM fluorescent peptide and optimal protein concentration (2.0 µM) for the measurement was calculated based on determined KD. Tested compounds were prepared as serial dilutions (0.1–500 µM) in DMSO. […] Additionally, the commercial compound library ChemDiv was screened as a control. The 20 compounds with the best docking scores were selected, purchased, and further subjected to FP binding assay to test their inhibitory abilities. […] The screening was performed at both virtual and entity levels. In the virtual screening, the docking model of the GIT1/β-Pix complex was constructed, and the binding pocket was generated based on the complex structure of GIT2/β-Pix that we solved recently (PDB ID: 6JMT)[42] (Fig. 2c). The virtual library (SMBL-V) was subjected to the Sybyl-X 2.0 program to perform high-throughput docking screening with GIT1 at the specific binding pockets. […] The Autodock and Sybyl-X 2.0 programs were used in combination for the second round of screening. Twenty top-ranked molecules were selected, and 9 compounds were synthesized (one structure for each scaffold) to perform further evaluation (N = 9) (see Source Data File for detailed structures and scores). For the entity library (SMBL-E) screening, a fluorescence polarization (FP)-binding assay[43],[44] was established to evaluate the inhibitory abilities of the compounds on the GIT1/β-Pix interaction (Fig. 2d). Several representative compounds (N = 100) with different scaffolds were chosen for screening. Together with the 9 compounds selected from virtual screening, a total of 109 compounds were subjected to the FP binding assay to perform the final evaluation. Compound 15-4-26 from the virtual library and compound 14-5-18 from the entity library with the best binding affinities (Ki values) were selected as candidates (Fig. 2e and Supplementary Fig. 3).
With `Cc1cc(-c2ccc3ccccc3n2)nc2ccc3ccccc3c12` [0443-0206], the half-maximal inhibitory concentration (IC50) was above 1000 µM.
On the same count and under the same terms, next, `CC(NS(=O)(=O)c1ccc2c(c1)C(=O)c1cc(S(=O)(=O)NC(C)C(=O)O)ccc1-2)C(=O)O` (stereo not drawn) [2578-0155]: above 1000 µM.
The same measure, in the same setting: then `C1C2CC3CC1CC(C2)C3Nc1nc2nonc2nc1NC1C2CC3CC(C2)CC1C3` (stereo not drawn) [3277-0083], with above 100 µM; and `Cn1c(=O)c2c(nc(Oc3cccc(C4Nc5ccc6ccccc6c5C5=C4C(=O)CC(C)(C)C5)c3)n2C)n(C)c1=O` (stereo not drawn) [3277-0261], with above 100 µM; and `CC1=CC(C)(C)Nc2ccc(OC(=O)C(Cc3ccccc3)N3C(=O)C4CCCCC4C3=O)cc21` (stereo not drawn) [4934-0001], with above 1000 µM.
For the molecule `Cn1c(=O)n(C)c2cc(CNC34CC5CC(C)(CC(C)(C5)C3)C4)ccc21` [D272-0692], the IC50 is above 1000 µM.
The same measure, in the same setting: then `Cc1ccc2cc3c(nc2c1)N(S(=O)(=O)c1ccc2c(c1)OCCO2)CC3` [D470-0645], with above 100 µM.
Same read-out and setting: next, `CN1C(=O)C(c2c(-c3ccc4ccccc4c3)[nH]c3[nH]c(=O)[nH]c(=O)c23)c2ccccc21` (stereo not drawn) [D517-1064]: above 1000 µM; `CSc1cccc(NC(=O)Nc2ccc(Nc3cc(N(C)C)nc(C)n3)cc2)c1` [D638-0006F]: above 1000 µM.
As for `O=S(=O)(c1ccc2nc(Nc3ccc(Br)cc3F)ccc2c1)N1CCCCC1` [F052-0078], the IC50 was above 100 µM.
Still for that read-out and setting: then `O=C(Nc1cccc(OCc2cc(=O)n3cc(Cl)ccc3n2)c1)Nc1ccc2c(c1)OCCO2` [G756-2320], with above 100 µM.
On the same count and under the same terms, next, `O=C1Nc2ccccc2Oc2cc(Oc3ccc4c(c3)OCO4)c(S(=O)(=O)N3CCCC3)cc21` [J030-0445]: above 1000 µM.
The same measure, in the same setting: then `CCS(=O)(=O)c1ccc2c(c1)N(Cc1nc(-c3ccc4c(c3)OCO4)no1)C(=O)CO2` [L111-0329], with above 1000 µM; and `Cc1cc(C)cc(S(=O)(=O)N2CCC3(CC2)NCCN=C3NCc2ccc(C(F)(F)F)cc2)c1` [L676-2486], with above 100 µM.
Take `CC(CC(=O)Nc1ccc2c(c1)OCCO2)S(=O)(=O)c1ccc2c(c1)NC(=O)CCS2` (stereo not drawn) [L705-0544]: the IC50 is above 1000 µM.

Another experiment has as its target T2, GIT1 1–370. In words: biochemical. Conditions: read-out: ka. Also on record: Biolayer interferometry, kinetic binding of 14-5-18 to GIT1. The text has this: We next investigated whether compounds 14-5-18 and 15-4-26 specifically perturbed the GIT1/β-Pix interaction in living cells. Firstly, we performed Cellular Thermal Shift Assay (CETSA) to preliminarily explore the target engagement of the compounds with GIT1 (Supplementary Fig. 4). CETSA relies on the fact that proteins are generally vulnerable to thermal conditions, while physical binding with other molecules could improve their stability. […] Therefore, further evaluations were only performed with 14-5-18, and 15-4-26 was suspended for its poor potential for drug development. […] Similarly, under thermal conditions from 30 to 90 °C, 14-5-18 (50 µM) also considerably stabilized GIT1, especially at high temperatures (Supplementary Fig. 4c). To further confirm whether 14-5-18 directly bound to GIT1, we used biolayer interferometry (BLI) assay to measure their interaction. […] Concentrations ranging from 25 to 400 μM were shown with the real-time response for each step of the kinetic assay. b Co-IP assay to indicate the interaction of GIT1 and β-Pix and the inhibitory effects of 14-5-18. […] GFP-GIT1 (green) and Myc-β-Pix were expressed followed by treatment with a fluorescent secondary antibody (red) in the MGC803 cell line to construct the fluorescence system. […] Plot fluorescence intensities of the area marked by the white lines in the left panels are shown in the right graphs. […]
For the molecule `CCOC(=O)[C@@H]1[C@@H]2C[C@@H](/C(=C\c3ccoc3)C2=O)[C@@]12C(=O)N(C)c1ccccc12` [14-5-18, ethyl (1S,2R,3R,4S,E)-6-(furan-3-ylmethylene)-1'-methyl-2',5-dioxospiro [bicyclo[2.2.1]heptane-2,3'-indoline]-3-carboxylate], the kon stood at 200 M⁻¹ s⁻¹.

Staying with this experiment, now noted: read-out: kdis.
For the molecule `CCOC(=O)[C@@H]1[C@@H]2C[C@@H](/C(=C\c3ccoc3)C2=O)[C@@]12C(=O)N(C)c1ccccc12` [14-5-18, ethyl (1S,2R,3R,4S,E)-6-(furan-3-ylmethylene)-1'-methyl-2',5-dioxospiro [bicyclo[2.2.1]heptane-2,3'-indoline]-3-carboxylate], the koff is 0.00154 s⁻¹.

In the next experiment the target is T2, GIT1 1–370. In words: fluorescence polarization competition with FITC-beta-Pix peptide. It counts as binding.
Details: not given
With `CCOC(=O)[C@@H]1[C@@H]2C[C@@H](/C(=C\c3ccoc3)C2=O)[C@@]12C(=O)N(C)c1ccccc12` [14-5-18], the Ki came out at 1.8 µM.
Still for that read-out and setting: next, `CCOC(=O)C1=C[C@H](c2cccc(C)c2)[C@H]2CC[C@@H](CC(=O)C3CCCCC3)O[C@H]2N1S(=O)(=O)c1ccc(C)cc1` [15-4-26]: 1.5 µM.

The target of another experiment is T2, GIT1 1–370. In words: biochemical. Details: fluorescence polarization competition, displacement of FITC-beta-Pix peptide from GIT1. The conditions noted are these: read-out: IC50 in FP assay. The source holds these as a separate data set. How it is done: GIT1 protein purification: Purification of GIT1 1–370 was performed following a published protocol. Briefly, the coding sequence of mouse GIT1 aa. 1–370 (GenBank: NM_001004144.1) was cloned into a pET32M3C (with an N-terminal Trx-His6 tag) vector. The recombinant protein was expressed in Escherichia coli BL21 (DE3) cells at 16 °C for 18 h induced by the isopropyl-β-D-thiogalactoside (IPTG) at a final concentration of 0.2 mM. The N-terminal Trx-His6-tagged GIT1 1–370 was purified by Ni^2+-NTA agarose affinity chromatography, followed by a Superdex-200 26/60 size-exclusion chromatography (GE Healthcare, Cytiva). To remove the Trx-His6 tag, GIT1 protein was cleaved by HRV-3C protease at 4 °C overnight and then purified by another step of SEC purification. The β-Pix-positive peptide (sequence: […]) and fluorescent peptide (sequence: FITC-(Acp)-[…]) were synthesized by China peptide (Shanghai, China). […] The fluorescence intensities, parallel and perpendicular to the plane of excitation, were determined in Corning black 96-well NBS assay plates at room temperature. Fluorescence polarization was determined using a Multi-Mode Detection Platform (SpectraMax Paradigm, Molecular Devices, USA) with 485 nm excitation and 535 nm emission filters, the values were expressed in millipolarization units (mP). The binding affinity of the fluorescent peptide toward GIT1 was first determined via titration. […]
As for `O=C(NCc1ccco1)C1CN(C(=O)c2cccs2)CC12CCCCC2` (stereo not drawn) [S030-1757], the IC50 is above 1000 µM.
